Reference: patent US9586969B2, “Microbiocidal heterobicyclic derivatives” (Syngenta Participations AG, priority 2014, dated 2017)
Where two headings read alike, the source gives them in different places.

Tests used:
[1] = system: Botryotinia fuckeliana (Botrytis cinerea); assay: Botryotinia fuckeliana (Botrytis cinerea) / liquid culture (Gray mould); type: cell-based; conditions: 72 h, 200 ppm, liquid culture, 24° C., inhibition of growth determined photometrically 3-4 days after application, vs untreated control, read-out: disease control
Gaeumannomyces graminis = Gaeumannomyces graminis / liquid culture (Take-all of cereals); type: cell-based; conditions: 96 h, read-out: disease control
[2] = system: Glomerella lagenarium (Colletotrichum lagenarium); assay: Glomerella lagenarium (Colletotrichum lagenarium) / liquid culture (Anthracnose); type: cell-based; conditions: Colletotrichum orbiculare; 200 ppm; liquid culture, 24° C., inhibition of growth measured photometrically 3-4 days after application; vs untreated control; read-out: disease control
[3] = system: Monographella nivalis (Microdochium nivale); assay: Monographella nivalis (Microdochium nivale) / liquid culture (Foot rot cereals); type: cell-based; conditions: 96 h, 200 ppm, liquid culture, 24° C., inhibition of growth determined photometrically 4-5 days after application, vs untreated control, read-out: disease control
[4] = system: Mycosphaerella graminicola (Septoria tritici); assay: Mycosphaerella graminicola (Septoria tritici) / liquid culture (Septoria blotch); type: cell-based; conditions: Zymoseptoria tritici, 96 h, read-out: disease control
Fusarium culmorum = assay: microbe, parasite or virus in culture; type: cell-based; conditions: 72 h, read-out: disease control
[5] = liquid culture, 24° C., inhibition of growth determined photometrically 4-5 days after application, vs untreated control

SMILES | inhibition of growth at 200 ppm [1] [%] | inhibition of growth at 200 ppm (Gaeumannomyces graminis; [5]) [%] | inhibition of growth at 200 ppm [2] [%] | inhibition of growth at 200 ppm [3] [%] | inhibition of growth at 200 ppm [4, 5] [%] | inhibition of growth at 200 ppm (Fusarium culmorum) [%] | melting point [°C] | inhibition of growth at 200 ppm (Gaeumannomyces graminis) [%] | inhibition of growth at 200 ppm [4] [%]
CC1(C)Cc2c(Oc3ccccn3)cccc2C(c2cnn3cccc3c2)=N1 [E 31] | ≥ 80 | ≥ 80 |  |  |  |  |  |  | 
CC1(C)Cc2c(F)cccc2C(c2cnn3c(Br)ccc3c2)=N1 [E 17] | ≥ 80 | ≥ 80 | ≥ 80 | ≥ 80 |  |  |  |  | 
C#CCOc1cccc2c1CC(C)(C)N=C2c1cnn2cccc2c1 [E 54] | ≥ 80 | ≥ 80 |  |  |  |  |  |  | 
CC1(C)N=C(c2cnn3cccc3c2)c2cccc(F)c2C1(C)C [E 1] | ≥ 80 | ≥ 80 | ≥ 80 | ≥ 80 |  |  |  |  | 
CC1(C)N=C(c2cnn3c(I)cc(I)c3c2)c2cccc(F)c2C1(C)C [E 38] | ≥ 80 |  |  | ≥ 80 | ≥ 80 |  |  |  | 
CC1(C)Cc2ccccc2C(c2cnn3c(F)ccc3c2)N1 (stereo not shown) [E 21] | ≥ 80 | ≥ 80 | ≥ 80 |  |  |  |  |  | 
CC1(C)Cc2c(F)cccc2C(c2cnn3c(F)cc(Br)c3c2)=N1 [E 15] | ≥ 80 | ≥ 80 | ≥ 80 | ≥ 80 | ≥ 80 |  |  |  | 
Cc1cc(F)n2ncc(C3=NC(C)(C)Cc4c(F)cccc43)cc12 [E 18] | ≥ 80 | ≥ 80 | ≥ 80 | ≥ 80 | ≥ 80 |  |  |  | 
C#Cc1cccc2c1CC(C)(C)N=C2c1cnn2c(F)ccc2c1 [E 27] | ≥ 80 | ≥ 80 | ≥ 80 | ≥ 80 | ≥ 80 | ≥ 80 |  |  | 
CC1(C)N=C(c2cnn3c(C#N)cc(Br)c3c2)c2cccc(F)c2C1(F)F [E 64, 5-bromo-3-(4,4,5-trifluoro-3,3-dimethyl-1-isoquinolyl)pyrrolo[1,2-b]pyridazine-7-carbonitrile] |  |  |  |  |  |  | 190 to 192 |  | 
CC1(C)N=C(c2cnn3c(F)ccc3c2)c2cccc(F)c2C1(C)C [E 2] | ≥ 80 | ≥ 80 | ≥ 80 | ≥ 80 |  | ≥ 80 |  |  | 
CC1(C)N=C(c2cnn3c(C#N)ccc3c2)c2cccc(F)c2C1(F)F [E 66, 3-(4,4,5-trifluoro-3,3-dimethyl-1-isoquinolyl)pyrrolo[1,2-b]pyridazine-7-carbonitrile] | ≥ 80 |  | ≥ 80 | ≥ 80 |  | ≥ 80 | 214 to 216 |  | 
CC1(C)Cc2c(Br)cccc2C(c2cnn3cccc3c2)=N1 [E 5] | ≥ 80 |  | ≥ 80 | ≥ 80 | ≥ 80 | ≥ 80 |  |  | 
CC1(C)Cc2c(F)cccc2C(c2cnn3c(C#N)ccc3c2)=N1 [E 30, 3-(5-fluoro-3,3-dimethyl-4H-isoquinolin-1-yl)pyrrolo[1,2-b]pyridazine-7-carbonitrile] | ≥ 80 | ≥ 80 | ≥ 80 | ≥ 80 | ≥ 80 | ≥ 80 | 118 to 136 |  | 
CC1(C)Cc2c(F)cccc2C(c2cnn3cccc3c2)=N1 [E 3] | ≥ 80 | ≥ 80 | ≥ 80 | ≥ 80 | ≥ 80 | ≥ 80 |  |  | 
CC1(C)N=C(c2cnn3c(Cl)ccc3c2)c2cccc(F)c2C1(C)C [E 76] |  |  |  |  |  | ≥ 80 |  | ≥ 80 | ≥ 80
Cc1nn2c(Br)ccc2cc1C1=NC(C)(C)C(C)(C)c2c(F)cccc21 [E 84] | ≥ 80 | ≥ 80 | ≥ 80 | ≥ 80 |  | ≥ 80 |  |  | 
CC1(C)Cc2c(Oc3ccccc3)cccc2C(c2cnn3cccc3c2)=N1 [E 60] | ≥ 80 |  | ≥ 80 | ≥ 80 | ≥ 80 | ≥ 80 |  |  | 
CC1(C)N=C(c2cnn3c(F)c(F)cc3c2)c2cccc(F)c2C1(C)C [E 75] | ≥ 80 | ≥ 80 | ≥ 80 |  |  | ≥ 80 |  |  | 
CC1(C)N=C(c2cnn3c(F)cc(I)c3c2)c2cccc(F)c2C1(C)C [E 24] | ≥ 80 |  | ≥ 80 | ≥ 80 | ≥ 80 | ≥ 80 |  |  | 
CC1(C)Cc2c(I)cccc2C(c2cnn3cccc3c2)=N1 [E 29] | ≥ 80 |  | ≥ 80 | ≥ 80 | ≥ 80 | ≥ 80 |  |  | 
CC1(C)N=C(c2cnn3c(Br)ccc3c2)c2cccc(F)c2C1(C)C [E 42] | ≥ 80 | ≥ 80 | ≥ 80 | ≥ 80 |  | ≥ 80 |  |  | 
CC1(C)N=C(c2cnn3cccc3c2)c2ccc(F)c(F)c2C1(C)C [E 73] | ≥ 80 |  | ≥ 80 | ≥ 80 |  | ≥ 80 |  |  | 
Cc1nn2cccc2cc1C1=NC(C)(C)C(C)(C)c2c1ccc(F)c2F [E 80] | ≥ 80 |  | ≥ 80 | ≥ 80 |  | ≥ 80 |  |  | 
